# Where “and” joins values, the source holds several entries; their conditions need not be identical. Identical values can stand only once. Like-named read-outs stand apart in the source and are kept apart here.
# Key:
# [1] = tested on: HL-60 human promyelocytic leukemia cells; assay: MTT cytotoxicity assay, HL-60 cells; format: cell-based; conditions: for IC50: MTT, read-out: IC50
# Experimental: (§1) For cytotoxicity experiments, cancer cells were seeded at a density of 5,000 (MCF-7), 10,000 (HL-60) or 2,000 cells/well (HCT116 and A549) in 96-well plates (TPP) for 24 h/37°C prior to the addition of examined agents. The non-cancerous cells, 3T3 and H9c2 cells, were cultured for 24 h/37°C in 96-well plates at a density of 10,000 cells/well, the medium was then changed to serum- and pyruvate-free DMEM (Sigma-Aldrich) and incubated with the cells for another 24 h/37°C. The cytotoxic effects of Bp4eT and its metabolites were studied at different concentrations after a 72 h/37°C incubation. In order to aid the dissolution of the lipophilic ligands, 0.1% dimethyl sulfoxide (v/v) (DMSO; Sigma-Aldrich) was present in the culture medium of all groups. At this concentration, DMSO had no effect on cellular proliferation or viability.
# (§2) The viability of cells were determined using an MTT assay (Sigma-Aldrich) according to previously established methods. The optical density of soluble MTT was measured at λ = 570 nm, subtracting the λ = 690 nm background using a Tecan Infinite 200M plate reader (Tecan Group, Männedorf, Switzerland). The viability or proliferation of experimental groups was expressed as a percentage of the untreated controls (100%).
# (§3) SigmaStat for Windows 3.5 (Systat Software, San Jose, CA, USA) statistical software package was utilized to analyze results. The data are expressed as the mean ± SD of a given number of experiments. Statistical significance was determined using a one-way ANOVA with a Bonferroni post-hoc test or Student’s t-test. The results were considered to be statistically significant when p < 0.05. The IC50 values were calculated using CalcuSyn 2.0 software (Biosoft, Cambridge, UK). Cell cycle analysis was evaluated using MultiCycle AV Software (Phoenix Flow Systems, San Diego, CA, USA).
# [2] = tested on: A549 human lung adenocarcinoma cells; assay: MTT cytotoxicity assay, A549 cells; format: cell-based; conditions: for IC50: MTT
# Experimental: as §1, §2, §3
smiles,measurement,setting,value
"CCN=CNN=C(c1ccccc1)c1ccccn1 [Bp4eA, N ^3-ethyl-N ^1-[phenyl(pyridin-2-yl)methylene]formamidrazone]","Therapeutic index, IC50 non-cancerous cells / IC50 neoplastic cells",[1]; 3T3/HL-60,19.7
same,"Therapeutic index, IC50 non-cancerous cells / IC50 neoplastic cells",[1]; H9c2/HL-60,8.0
same,"MTT, relative to control (0 = 100)","[1]; HL-60, 10 000 b/j, 3 μM, průměr (mean), sheet Bp4eA",96.31
same,"MTT, relative to control (0 = 100)","[1]; HL-60, 10 000 b/j, 3 μM, single experiment (date), sheet Bp4eA",98.9707 and 95.9296 and 99.8753 and 90.4839
same,"MTT, relative to control (0 = 100)","[1]; HL-60, 10 000 b/j, 10 μM, průměr (mean), sheet Bp4eA",96.62
same,"MTT, relative to control (0 = 100)","[1]; HL-60, 10 000 b/j, 10 μM, single experiment (date), sheet Bp4eA",97.2125 and 99.0002 and 94.4459 and 95.8253
same,"MTT, relative to control (0 = 100)","[1]; HL-60, 10 000 b/j, 30 μM, průměr (mean), sheet Bp4eA",83.43
same,"MTT, relative to control (0 = 100)","[1]; HL-60, 10 000 b/j, 30 μM, single experiment (date), sheet Bp4eA",80.8819 and 83.0208 and 86.8317 and 82.995
same,"MTT, relative to control (0 = 100)","[1]; HL-60, 10 000 b/j, 50 μM, průměr (mean), sheet Bp4eA",62.90
same,"MTT, relative to control (0 = 100)","[1]; HL-60, 10 000 b/j, 50 μM, single experiment (date), sheet Bp4eA",62.3054 and 62.5036 and 62.1604 and 64.6299
same,"MTT, relative to control (0 = 100)","[1]; HL-60, 10 000 b/j, 80 μM, průměr (mean), sheet Bp4eA",16.51
same,"MTT, relative to control (0 = 100)","[1]; HL-60, 10 000 b/j, 100 μM, průměr (mean), sheet Bp4eA",1.77
same,"MTT, relative to control (0 = 100)","[1]; HL-60, 10 000 b/j, 300 μM, průměr (mean), sheet Bp4eA",1.66
same,IC50,"[1]; HL-60, 10 000 b/j, single experiment (date), sheet Bp4eA",51 µM and 54.1 µM and 55.3 µM
same,IC50,"[1]; Homo sapiens, HL-60, 72 h, HL-60, 72 h/37°C, mean ± SD, n ≥ 4",52.1 ± 3.3 µM
same,IC50,"[1]; Homo sapiens, HL-60, HL-60, 10 000 b/j, průměr (mean), sheet Bp4eA",52.1 µM
same,IC50,"[1]; Homo sapiens, HL-60, HL-60, 10 000 b/j, single experiment (date), sheet Bp4eA",47.9 µM
same,"Therapeutic index, IC50 non-cancerous cells / IC50 neoplastic cells",[2]; 3T3/A549,5.0
same,"MTT, relative to control (0 = 100)","[2]; A549, 2 000 b/j, 1 μM, průměr (mean), sheet Bp4eA",94.41
same,"MTT, relative to control (0 = 100)","[2]; A549, 2 000 b/j, 1 μM, single experiment (date), sheet Bp4eA",88.8209 and 94.4571 and 96.7337 and 97.6446
same,"MTT, relative to control (0 = 100)","[2]; A549, 2 000 b/j, 3 μM, průměr (mean), sheet Bp4eA",94.09
same,"MTT, relative to control (0 = 100)","[2]; A549, 2 000 b/j, 3 μM, single experiment (date), sheet Bp4eA",86.5333 and 93.7511 and 98.3115 and 97.7691
same,"MTT, relative to control (0 = 100)","[2]; A549, 2 000 b/j, 10 μM, průměr (mean), sheet Bp4eA",92.78
same,"MTT, relative to control (0 = 100)","[2]; A549, 2 000 b/j, 10 μM, single experiment (date), sheet Bp4eA",86.1682 and 92.0865 and 96.0506 and 96.8227
same,"MTT, relative to control (0 = 100)","[2]; A549, 2 000 b/j, 30 μM, průměr (mean), sheet Bp4eA",91.20
same,"MTT, relative to control (0 = 100)","[2]; A549, 2 000 b/j, 30 μM, single experiment (date), sheet Bp4eA",88.1425 and 87.7957 and 97.6861 and 91.1602
same,"MTT, relative to control (0 = 100)","[2]; A549, 2 000 b/j, 100 μM, průměr (mean), sheet Bp4eA",77.56
same,"MTT, relative to control (0 = 100)","[2]; A549, 2 000 b/j, 100 μM, single experiment (date), sheet Bp4eA",74.9089 and 76.0742 and 86.7011 and 72.5654
same,"MTT, relative to control (0 = 100)","[2]; A549, 2 000 b/j, 300 μM, průměr (mean), sheet Bp4eA",45.10
same,"MTT, relative to control (0 = 100)","[2]; A549, 2 000 b/j, 300 μM, single experiment (date), sheet Bp4eA",48.1515 and 41.8857 and 54.342 and 36.0376
same,"MTT, relative to control (0 = 100)","[2]; A549, 2 000 b/j, 1000 μM, průměr (mean), sheet Bp4eA",7.31
same,"MTT, relative to control (0 = 100)","[2]; A549, 2 000 b/j, 1000 μM, single experiment (date), sheet Bp4eA",9.28 and 7.437 and 7.169 and 5.37
same,IC50,"[2]; A549, 2 000 b/j, single experiment (date), sheet Bp4eA",183 µM and 273 µM and 169 µM
same,"Therapeutic index, IC50 non-cancerous cells / IC50 neoplastic cells",[2]; H9c2/A549,2.0
same,IC50,"[2]; Homo sapiens, A549, 72 h, A549, 72 h/37°C, mean ± SD, n ≥ 4",207 ± 46.1 µM
same,IC50,"[2]; Homo sapiens, A549, A549, 2 000 b/j, průměr (mean), sheet Bp4eA",207 µM

# From paper PMC4604124, “In Vitro Characterization of the Pharmacological Properties of the Anti-Cancer Chelator, Bp4eT, and Its Phase I Metabolites” (PLoS ONE, 2015)
